Reference: PubChem BioAssay (NCI)
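Five compound concentrations were applied to cells in 96-well plates for 48 hours; endpoints were derived by simple linear interpolation of the resulting dose-response curve. Here, GI50 denotes the concentration required for 50% inhibition of growth. TGI is the concentration that stops growth completely.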

Tests used:
Experiment in all cases: NCI anticancer screen, dose series, 48 h
[1] = test system: HCC-2998 colon
[2] = test system: CCRF-CEM leukemia
[3] = test system: SF-295 CNS
[4] = test system: EKVX NSCLC
[5] = test system: ACHN renal
[6] = test system: RXF 393 renal
[7] = test system: TK-10 renal
[8] = test system: SK-MEL-28 melanoma
[9] = test system: SF-268 CNS
[10] = test system: NCI-H522 lung

SMILES | TGI [1] | TGI [2] | TGI [3] | TGI [4] | TGI [5] | TGI [6] | TGI [7] | TGI [8] | TGI [9] | TGI [10] | GI50 [1] | GI50 [2] | GI50 [3] | GI50 [4] | GI50 [5] | GI50 [6] | GI50 [7] | GI50 [8] | GI50 [9] | GI50 [10]
CN=C(N)/N=C(\N)Nc1cc2ccccc2c2ccccc12 | 6.78 µM | 26.1 µM | 32.5 µM | 31.8 µM | 26.3 µM | 31.9 µM | 26 µM | 34.1 µM | 27.5 µM | 26.2 µM |  |  |  |  |  |  |  |  |  | 
CCCC1=C(C(=O)OCC)C(c2ccccc2OC)C(C#N)=C(N)O1 (stereo not given) | > 100 µM | 42.1 µM | > 100 µM | > 100 µM | > 100 µM | > 100 µM | > 100 µM | 79.4 µM | > 100 µM | 60.5 µM | 77.3 µM | 19.4 µM | 84 µM | > 100 µM | 48.1 µM | 46.5 µM | 46.1 µM | 26.3 µM | 37.8 µM | 25.5 µM
CCOC(=O)C(=O)Nc1c(CC)cccc1C(C)CC (stereo not given) | > 100 µM | > 100 µM | > 100 µM | > 100 µM | > 100 µM | > 100 µM | > 100 µM | > 100 µM | > 100 µM | > 100 µM |  |  |  |  |  |  |  |  |  | 
N#CCCOCN(CO)c1nc(N(CO)COCCC#N)nc(N(CO)COCCC#N)n1 |  | 58 µM | 43.7 µM | 93.7 µM | 76.1 µM | 38.4 µM | 91.2 µM | 38.8 µM | 45.1 µM | 47.5 µM |  |  |  |  |  |  |  |  |  | 
CC(=O)N1CC(=O)NC1=S |  | > 100 µM | > 100 µM | > 100 µM | > 100 µM |  | > 100 µM | > 100 µM | > 100 µM | > 100 µM |  |  |  |  |  |  |  |  |  | 
COc1cc2c(cc1OC)C1Cc3cc(OC)c(OC)cc3C(C2)O1 | > 100 µM | > 100 µM | > 100 µM | > 100 µM | > 100 µM | > 100 µM | > 100 µM | > 100 µM | > 100 µM |  |  |  |  |  |  |  |  |  |  | 
Nc1cccc2c1C1=NNC(=O)CC1C2 (stereo not given) | > 100 µM | > 100 µM | > 100 µM | > 100 µM |  | > 100 µM |  | > 100 µM | > 100 µM | > 100 µM |  |  |  |  |  |  |  |  |  | 
NC(=O)Nc1ccc(C(=O)NCCCNC(=O)c2ccc(NC(N)=O)cc2)cc1 | > 100 µM | > 100 µM |  | > 100 µM | > 100 µM | > 100 µM | > 100 µM | > 100 µM | > 100 µM | > 100 µM |  |  |  |  |  |  |  |  |  | 
Cc1c2cc[n+](C)cc2c(C)c2c1[nH]c1ccc(Cl)cc12 | 13.8 µM | 26.5 µM | 4.37 µM | 14.1 µM | 61.7 µM | 19.1 µM | 61.3 µM | 16.5 µM | 0.831 µM | 2.38 µM |  |  |  |  |  |  |  |  |  | 
O=C(Nc1cccc([N+](=O)[O-])c1)C(=O)C(C(=O)c1ccccc1F)C1OC(=O)C2C=CC=CC21 (stereo not given) | > 100 µM | > 100 µM | > 100 µM | > 100 µM | > 100 µM | 48.6 µM | > 100 µM | > 100 µM | 70.6 µM | 55.7 µM |  |  |  |  |  |  |  |  |  | 
COc1cc(NC(=O)CSc2nc3ccccc3c(=O)n2CCc2ccccc2)cc(OC)c1OC |  | > 100 µM | 15.3 µM | > 100 µM |  | 3.69 µM | 3.81 µM |  | 43.9 µM | 4.2 µM |  | > 100 µM | 3.21 µM | 4.8 µM |  | 1.57 µM | 1.81 µM |  | 3.55 µM | 1.65 µM
CNS(=O)(=O)c1ccc2[nH]c(O)c(C3=Nc4ccccc4C3=O)c2c1 | > 100 µM | > 100 µM | > 100 µM | > 100 µM | > 100 µM | > 100 µM | > 100 µM | > 100 µM | > 100 µM | > 100 µM |  |  |  |  |  |  |  |  |  | 
O=C(NCCNc1nccc(-c2c(-c3cccc(O)c3)nc3sccn23)n1)Nc1cccc(C(F)(F)F)c1 | 5.77 µM | 13.7 µM | 29.7 µM | 36.6 µM | 45.7 µM | 5.1 µM | 11.1 µM |  | 14.6 µM | 5 µM | 2.68 µM | 3.25 µM | 4.16 µM | 4.16 µM | 5.79 µM | 2.41 µM | 3.66 µM | 2.68 µM | 3.45 µM | 2.11 µM
Cc1ccc2ccc3ccc(C)nc3c2n1 | > 100 µM | > 100 µM | > 100 µM | > 100 µM | > 100 µM | > 100 µM | > 100 µM | > 100 µM | > 100 µM | > 100 µM |  |  |  |  |  |  |  |  |  | 
C[C@H](N[C@H]1CCC[C@]1(O)C#Cc1ccc2c(c1)OCO2)c1ccccc1 | > 25 µM | > 25 µM | > 25 µM | > 25 µM | > 25 µM | > 25 µM | > 25 µM | > 25 µM | > 25 µM |  |  |  |  |  |  |  |  |  |  | 
